How the values were obtained:
Assay type in all cases: cell-based
[1] = molecular target: T1, WEE1 (Homo sapiens, UniProt P30291+Q96SW2); test: Western blot degradation of WEE1 in hPBMC
T1 construct: endogenous in cells; host or cells: hPBMC
How it was run: (§1)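 Percent target remaining and DC50 derive from grayscale of Western bands in degrader-treated hPBMC, normalized to an internal control protein and compared with DMSO samples. Gels were SDS-PAGE, transferred onto nitrocellulose and blocked one hour at room temperature.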

[2] = molecular target: T2, IKZF1 (Homo sapiens, UniProt Q13422+Q96SW2); test: Western blot degradation of IKZF1 in hPBMC
T2 construct: endogenous in cells; host or cells: hPBMC
How it was run: as §1

[3] = molecular target: T3, IKZF2 (Homo sapiens, UniProt Q96SW2+Q9UKS7); test: Western blot degradation of IKZF2 in hPBMC
T3 construct: endogenous in cells; host or cells: hPBMC
How it was run: as §1

[4] = molecular target: T4, IKZF3 (Homo sapiens, UniProt Q96SW2+Q9UKT9); test: Western blot degradation of IKZF3 in hPBMC
T4 construct: endogenous in cells; host or cells: hPBMC
How it was run: as §1

[5] = molecular target: T5, CK1a (Homo sapiens, UniProt P48729+Q96SW2); test: Western blot degradation of CK1a in hPBMC
T5 construct: endogenous in cells; host or cells: hPBMC
How it was run: as §1

[6] = molecular target: T6, GSPT1 (Homo sapiens, UniProt P15170+Q96SW2); test: Western blot degradation of GSPT1 in hPBMC
T6 construct: endogenous in cells; host or cells: hPBMC
How it was run: as §1

T3 sequence (Q9UKS7 whole entry): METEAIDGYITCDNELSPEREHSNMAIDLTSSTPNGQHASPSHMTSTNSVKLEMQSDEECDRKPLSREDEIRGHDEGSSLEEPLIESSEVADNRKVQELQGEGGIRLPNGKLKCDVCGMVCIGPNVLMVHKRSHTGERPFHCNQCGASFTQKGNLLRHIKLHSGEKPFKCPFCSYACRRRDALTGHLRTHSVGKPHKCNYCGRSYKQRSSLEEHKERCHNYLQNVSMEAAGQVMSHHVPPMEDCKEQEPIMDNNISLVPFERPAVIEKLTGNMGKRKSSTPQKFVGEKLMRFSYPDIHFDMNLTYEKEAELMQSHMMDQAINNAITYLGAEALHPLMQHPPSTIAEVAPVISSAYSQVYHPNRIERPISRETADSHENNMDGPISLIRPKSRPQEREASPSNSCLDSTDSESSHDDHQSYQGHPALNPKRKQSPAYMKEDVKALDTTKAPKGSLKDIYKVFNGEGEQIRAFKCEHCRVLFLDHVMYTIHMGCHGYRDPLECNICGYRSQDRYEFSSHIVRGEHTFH
T3 sequence (Q96SW2 whole entry): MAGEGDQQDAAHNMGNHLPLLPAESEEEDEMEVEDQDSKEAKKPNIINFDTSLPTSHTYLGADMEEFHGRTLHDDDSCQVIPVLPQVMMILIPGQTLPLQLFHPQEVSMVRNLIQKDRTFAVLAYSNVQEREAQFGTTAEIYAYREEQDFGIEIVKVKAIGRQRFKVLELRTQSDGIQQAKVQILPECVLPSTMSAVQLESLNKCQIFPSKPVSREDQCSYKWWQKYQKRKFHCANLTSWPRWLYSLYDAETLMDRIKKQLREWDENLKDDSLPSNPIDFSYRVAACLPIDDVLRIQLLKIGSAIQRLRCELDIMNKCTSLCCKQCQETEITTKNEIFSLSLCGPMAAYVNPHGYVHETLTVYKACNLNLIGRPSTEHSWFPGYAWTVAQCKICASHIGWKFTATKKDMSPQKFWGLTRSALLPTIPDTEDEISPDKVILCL
T3 sequence (Q16531 whole entry partner): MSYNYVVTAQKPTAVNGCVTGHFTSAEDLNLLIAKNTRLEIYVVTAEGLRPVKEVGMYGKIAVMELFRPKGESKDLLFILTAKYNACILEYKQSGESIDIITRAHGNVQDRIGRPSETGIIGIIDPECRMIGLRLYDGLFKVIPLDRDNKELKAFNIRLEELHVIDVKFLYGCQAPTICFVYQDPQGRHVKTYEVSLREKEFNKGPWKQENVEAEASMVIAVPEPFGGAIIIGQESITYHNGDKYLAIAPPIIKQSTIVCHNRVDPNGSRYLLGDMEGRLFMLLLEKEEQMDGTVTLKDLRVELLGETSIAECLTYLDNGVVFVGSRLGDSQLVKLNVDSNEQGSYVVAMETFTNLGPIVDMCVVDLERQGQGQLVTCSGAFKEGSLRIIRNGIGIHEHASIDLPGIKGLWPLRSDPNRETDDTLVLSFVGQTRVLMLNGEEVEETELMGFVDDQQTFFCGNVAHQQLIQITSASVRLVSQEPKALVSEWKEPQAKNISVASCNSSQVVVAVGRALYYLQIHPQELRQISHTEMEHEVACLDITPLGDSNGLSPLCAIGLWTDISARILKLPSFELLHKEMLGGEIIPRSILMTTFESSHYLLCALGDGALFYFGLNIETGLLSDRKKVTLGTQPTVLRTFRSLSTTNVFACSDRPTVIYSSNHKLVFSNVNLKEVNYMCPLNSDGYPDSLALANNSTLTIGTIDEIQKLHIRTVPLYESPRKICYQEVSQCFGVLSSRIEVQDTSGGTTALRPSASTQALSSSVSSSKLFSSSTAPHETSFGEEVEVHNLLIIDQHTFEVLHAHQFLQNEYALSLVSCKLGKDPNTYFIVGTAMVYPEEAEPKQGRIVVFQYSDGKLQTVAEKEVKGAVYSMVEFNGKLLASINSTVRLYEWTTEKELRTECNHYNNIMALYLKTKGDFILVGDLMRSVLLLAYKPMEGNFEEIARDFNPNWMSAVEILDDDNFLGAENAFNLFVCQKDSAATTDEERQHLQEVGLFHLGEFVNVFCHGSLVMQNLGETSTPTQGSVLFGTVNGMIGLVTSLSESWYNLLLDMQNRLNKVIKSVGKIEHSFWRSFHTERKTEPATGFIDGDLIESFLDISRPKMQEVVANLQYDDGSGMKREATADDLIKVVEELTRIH
T2 sequence (Q13422 whole entry): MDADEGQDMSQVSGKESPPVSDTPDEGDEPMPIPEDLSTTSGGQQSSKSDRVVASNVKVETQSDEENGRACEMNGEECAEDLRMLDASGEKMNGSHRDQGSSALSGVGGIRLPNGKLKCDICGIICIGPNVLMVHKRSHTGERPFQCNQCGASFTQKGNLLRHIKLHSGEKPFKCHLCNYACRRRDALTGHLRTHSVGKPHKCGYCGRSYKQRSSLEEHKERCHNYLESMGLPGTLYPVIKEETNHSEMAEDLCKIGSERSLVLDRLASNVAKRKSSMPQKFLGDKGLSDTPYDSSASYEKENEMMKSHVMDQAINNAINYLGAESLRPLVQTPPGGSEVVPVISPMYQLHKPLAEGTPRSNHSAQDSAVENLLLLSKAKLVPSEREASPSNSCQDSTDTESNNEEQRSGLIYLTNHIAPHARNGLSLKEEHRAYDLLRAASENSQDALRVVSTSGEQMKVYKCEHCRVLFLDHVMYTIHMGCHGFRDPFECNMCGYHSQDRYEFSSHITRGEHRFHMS
T2 sequence (Q96SW2 whole entry): as the sequence (Q96SW2 whole entry) above
T2 sequence (Q16531 whole entry partner): as the sequence (Q16531 whole entry partner) above
T1 sequence (P30291 whole entry): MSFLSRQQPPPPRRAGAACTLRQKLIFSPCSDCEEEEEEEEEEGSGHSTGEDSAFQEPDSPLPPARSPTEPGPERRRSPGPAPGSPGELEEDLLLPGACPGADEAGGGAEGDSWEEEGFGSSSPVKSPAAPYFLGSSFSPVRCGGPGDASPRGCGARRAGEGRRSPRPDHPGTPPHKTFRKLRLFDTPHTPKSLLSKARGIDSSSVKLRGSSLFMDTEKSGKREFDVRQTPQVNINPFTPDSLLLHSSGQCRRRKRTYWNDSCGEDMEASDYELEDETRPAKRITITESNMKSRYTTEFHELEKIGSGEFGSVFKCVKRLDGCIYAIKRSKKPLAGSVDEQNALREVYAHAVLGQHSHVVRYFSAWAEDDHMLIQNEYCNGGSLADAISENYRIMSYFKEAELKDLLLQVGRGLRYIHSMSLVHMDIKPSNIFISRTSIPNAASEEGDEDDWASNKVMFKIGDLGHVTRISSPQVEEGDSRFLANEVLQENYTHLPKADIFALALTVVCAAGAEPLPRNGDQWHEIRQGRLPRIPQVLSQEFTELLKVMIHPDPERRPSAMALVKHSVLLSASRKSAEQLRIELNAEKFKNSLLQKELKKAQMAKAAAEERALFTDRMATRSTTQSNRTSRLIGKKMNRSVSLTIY
T1 sequence (Q96SW2 whole entry): as the sequence (Q96SW2 whole entry) above
T1 sequence (Q16531 whole entry partner): as the sequence (Q16531 whole entry partner) above
T6 sequence (P15170 whole entry): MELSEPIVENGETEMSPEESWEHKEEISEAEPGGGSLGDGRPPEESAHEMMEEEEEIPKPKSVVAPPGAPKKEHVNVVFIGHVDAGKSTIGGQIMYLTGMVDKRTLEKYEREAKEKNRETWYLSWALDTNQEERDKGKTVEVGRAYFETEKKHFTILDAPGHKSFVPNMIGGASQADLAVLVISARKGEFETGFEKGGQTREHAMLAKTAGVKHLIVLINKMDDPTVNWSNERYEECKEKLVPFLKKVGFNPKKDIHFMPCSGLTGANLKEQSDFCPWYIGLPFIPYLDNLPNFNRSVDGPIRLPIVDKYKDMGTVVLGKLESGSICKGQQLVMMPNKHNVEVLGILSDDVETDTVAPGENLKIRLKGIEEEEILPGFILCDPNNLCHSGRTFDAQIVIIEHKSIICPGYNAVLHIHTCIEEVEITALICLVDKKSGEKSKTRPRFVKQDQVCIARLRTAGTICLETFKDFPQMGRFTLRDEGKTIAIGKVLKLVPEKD
T6 sequence (Q96SW2 whole entry): as the sequence (Q96SW2 whole entry) above
T6 sequence (Q16531 whole entry partner): as the sequence (Q16531 whole entry partner) above
T5 sequence (P48729 whole entry): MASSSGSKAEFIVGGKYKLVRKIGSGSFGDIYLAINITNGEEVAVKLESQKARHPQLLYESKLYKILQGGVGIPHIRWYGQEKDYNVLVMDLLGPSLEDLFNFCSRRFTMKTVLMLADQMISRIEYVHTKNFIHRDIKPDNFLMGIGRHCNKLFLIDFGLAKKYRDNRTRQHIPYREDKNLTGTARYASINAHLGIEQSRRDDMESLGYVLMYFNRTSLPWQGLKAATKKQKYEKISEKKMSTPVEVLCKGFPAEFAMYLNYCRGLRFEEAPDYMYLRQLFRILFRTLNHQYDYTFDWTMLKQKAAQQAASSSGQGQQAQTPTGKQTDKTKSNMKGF
T5 sequence (Q96SW2 whole entry): as the sequence (Q96SW2 whole entry) above
T5 sequence (Q16531 whole entry partner): as the sequence (Q16531 whole entry partner) above

Row | SMILES | Degradation of substrate protein WEE1 (substrate protein remaining %) [1] | Degradation of substrate protein IKZF1 (substrate protein remaining %) [2] | Degradation of substrate protein IKZF2 (substrate protein remaining %) [3] | Degradation of substrate protein IKZF3 (substrate protein remaining %) [4] | Degradation of substrate protein CK1a (substrate protein remaining %) [5] | Degradation of substrate protein GSPT1 (substrate protein remaining %) [6]
1 | O=Cc1ccnc(NC2CCC(=O)NC2=O)c1 (stereo not drawn) [GT-07553, 2-((2,6-dioxopiperidin-3-yl)amino)isonicotinaldehyde] | A (A is defined as 0% ≤ substrate protein remaining % ≤ 80%) | A (A is defined as 0% ≤ substrate protein remaining % ≤ 80%) | A (A is defined as 0% ≤ substrate protein remaining % ≤ 80%) | B (B is defined as substrate protein remaining % > 80%) | B (B is defined as substrate protein remaining % > 80%) | B (B is defined as substrate protein remaining % > 80%)
2 | O=Cc1cncc(NC2CCC(=O)NC2=O)c1 (stereo not drawn) [GT-07554, 5-((2,6-dioxopiperidin-3-yl)amino)nicotinaldehyde] | A (A is defined as 0% ≤ substrate protein remaining % ≤ 80%) | A (A is defined as 0% ≤ substrate protein remaining % ≤ 80%) | A (A is defined as 0% ≤ substrate protein remaining % ≤ 80%) | A (A is defined as 0% ≤ substrate protein remaining % ≤ 80%) | A (A is defined as 0% ≤ substrate protein remaining % ≤ 80%) | B (B is defined as substrate protein remaining % > 80%)
3 | O=C1CCN(c2cnc(CO)c(F)c2)C(=O)N1 [GT-07555, 1-(5-fluoro-6-(hydroxymethyl)pyridin-3-yl)dihydropyrimidine-2,4(1H,3H)-dione] | A (A is defined as 0% ≤ substrate protein remaining % ≤ 80%) | A (A is defined as 0% ≤ substrate protein remaining % ≤ 80%) | A (A is defined as 0% ≤ substrate protein remaining % ≤ 80%) | A (A is defined as 0% ≤ substrate protein remaining % ≤ 80%) | A (A is defined as 0% ≤ substrate protein remaining % ≤ 80%) | A (A is defined as 0% ≤ substrate protein remaining % ≤ 80%)
4 | O=C1CCN(c2cnc(F)c(CO)c2)C(=O)N1 [GT-07556, 1-(6-fluoro-5-(hydroxymethyl)pyridin-3-yl)dihydropyrimidine-2,4(1H,3H)-dione] | A (A is defined as 0% ≤ substrate protein remaining % ≤ 80%) | A (A is defined as 0% ≤ substrate protein remaining % ≤ 80%) | B (B is defined as substrate protein remaining % > 80%) | A (A is defined as 0% ≤ substrate protein remaining % ≤ 80%) | A (A is defined as 0% ≤ substrate protein remaining % ≤ 80%) | B (B is defined as substrate protein remaining % > 80%)
5 | O=C1CCN(c2cnc(CCl)c(F)c2)C(=O)N1 [GT-07557, 1-(6-(chloromethyl)-5-fluoropyridin-3-yl)dihydropyrimidine-2,4(1H,3H)-dione] | A (A is defined as 0% ≤ substrate protein remaining % ≤ 80%) | A (A is defined as 0% ≤ substrate protein remaining % ≤ 80%) | B (B is defined as substrate protein remaining % > 80%) | B (B is defined as substrate protein remaining % > 80%) | A (A is defined as 0% ≤ substrate protein remaining % ≤ 80%) | B (B is defined as substrate protein remaining % > 80%)
6 | O=C1CCC(c2ccc(CO)nc2F)C(=O)N1 (stereo not drawn) [GT-07558, 3-(2-fluoro-6-(hydroxymethyl)pyridin-3-yl)piperidine-2,6-dione] | A (A is defined as 0% ≤ substrate protein remaining % ≤ 80%) | A (A is defined as 0% ≤ substrate protein remaining % ≤ 80%) | B (B is defined as substrate protein remaining % > 80%) | B (B is defined as substrate protein remaining % > 80%) | A (A is defined as 0% ≤ substrate protein remaining % ≤ 80%) | B (B is defined as substrate protein remaining % > 80%)
7 | O=C1CCC(Nc2cnccc2CO)C(=O)N1 (stereo not drawn) [GT-07559, 3-((4-(hydroxymethyl)pyridin-3-yl)amino)piperidine-2,6-dione] | A (A is defined as 0% ≤ substrate protein remaining % ≤ 80%) | A (A is defined as 0% ≤ substrate protein remaining % ≤ 80%) | A (A is defined as 0% ≤ substrate protein remaining % ≤ 80%) | A (A is defined as 0% ≤ substrate protein remaining % ≤ 80%) | A (A is defined as 0% ≤ substrate protein remaining % ≤ 80%) | A (A is defined as 0% ≤ substrate protein remaining % ≤ 80%)
8 | O=C1CCN(c2cncc(CO)n2)C(=O)N1 [GT-07632, 1-(6-(hydroxymethyl)pyrazin-2-yl)dihydropyrimidine-2,4(1H,3H)-dione] | A (A is defined as 0% ≤ substrate protein remaining % ≤ 80%) | A (A is defined as 0% ≤ substrate protein remaining % ≤ 80%) | A (A is defined as 0% ≤ substrate protein remaining % ≤ 80%) | A (A is defined as 0% ≤ substrate protein remaining % ≤ 80%) | A (A is defined as 0% ≤ substrate protein remaining % ≤ 80%) | B (B is defined as substrate protein remaining % > 80%)
9 | O=C1CCN(c2cnc(F)c(CCl)c2)C(=O)N1 [GT-07633, 1-(5-(chloromethyl)-6-fluoropyridin-3-yl)dihydropyrimidine-2,4(1H,3H)-dione] | A (A is defined as 0% ≤ substrate protein remaining % ≤ 80%) | B (B is defined as substrate protein remaining % > 80%) | A (A is defined as 0% ≤ substrate protein remaining % ≤ 80%) | B (B is defined as substrate protein remaining % > 80%) | A (A is defined as 0% ≤ substrate protein remaining % ≤ 80%) | B (B is defined as substrate protein remaining % > 80%)
